Laboratory results as given in paper PMC6435784, “Gut Microbiota-Based Pharmacokinetics and the Antidepressant Mechanism of Paeoniflorin” (Frontiers in Pharmacology, 2019).

Columns and labels:
[1] = system: rat intestinal microbial culture; test: Metabolism of paeoniflorin by intestinal bacteria in vitro; type: in vitro ADME; conditions: 24-h incubation
Description: The colon contents of six rats were pooled, and 5 g of the sample was transferred to a ziplock bag and then mixed thoroughly with anaerobic medium (100 mL). After mixing completely, the cultures were stored at 37°C and preincubated for 1 h. Then, 10 μL of paeoniflorin (100 mg/mL) was added to fresh rat intestinal microbial culture (990 μL) under anaerobic conditions of N2, with a final concentration of 1 mg/mL of paeoniflorin in the culture system ([Hattori et al., 1988]). The inactivated bacteria solution was used as a negative control. Cultures were incubated at 37°C for 0, 2, 6, 12, and 24 h, respectively. After terminated the reaction with 3 volumes of acetonitrile, samples were vortexed for 30 s and then centrifuged at 16,162 g for 5 min. A total of 100 μL of the supernatant were transferred to a centrifuge tube, centrifuged at 16,162 g for 5 min and filtered through a 0.45 μm microporous membrane. Finally, 5 μL of the filtrate solution was collected for analysis.

[2] = Metabolism of paeoniflorin in liver microsome in vitro; type: in vitro ADME; conditions: 5 μM paeoniflorin, 1 mg/mL protein, NADPH, 37°C, incubation 2 h
Description: Samples were incubated at 37°C in a shaker. The incubation mixtures were 0.2 mL of the final volume and the protein concentration was 1 mg/mL. […] The reaction was initiated by the addition of NADPH after a 3 min preincubation at 37°C. The above reactions were terminated by the addition of 0.4 mL acetonitrile (1:2). Proteins were precipitated by centrifugation at 10,625 g for 5 min, and 10 μL supernatant was injected into the UPLC system for quantification.

Compound: C[C@@]12C[C@@]3(O)O[C@@H](O1)[C@]1(COC(=O)c4ccccc4)[C@H]3C[C@@]12O[C@@H]1O[C@H](CO)[C@@H](O)[C@H](O)[C@H]1O [Paeoniflorin]
- transformation of paeoniflorin in intestinal bacteria ([1]; 37°C, anaerobic, 1 mg/mL paeoniflorin, normal gut bacteria): completely transformed
- metabolism of paeoniflorin in inactivated gut bacteria (control group) ([1]; inactivated bacteria solution): not metabolized
- benzoic acid production in the liver microsome system [2]: no benzoic acid produced
